This experiment concerns the target human NaV1.8 (Homo sapiens (Human), UniProt Q9Y5Y9). Kind of experiment: Nav1.8 Qube automated patch-clamp assay. It counts as cell-based. The settings on record: human NaV1.8 stably expressed in HEK 293 cells; automated 384-well patch-clamp; resting or inactivated state not specified. Summed up:
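Human NaV1.8 in HEK293 cells, automated whole-cell patch clamp at room temperature: 1 Hz train of ten 20 ms pulses to 10 mV from −90 mV, repolarization to −67 mV. First- and tenth-pulse peak currents gave resting and inactivated-state IC50 values via Hill fits.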
(In general: The patch-clamp technique gives a direct electrical read-out from membranes.)
Sequence of human NaV1.8 (Q9Y5Y9 whole entry): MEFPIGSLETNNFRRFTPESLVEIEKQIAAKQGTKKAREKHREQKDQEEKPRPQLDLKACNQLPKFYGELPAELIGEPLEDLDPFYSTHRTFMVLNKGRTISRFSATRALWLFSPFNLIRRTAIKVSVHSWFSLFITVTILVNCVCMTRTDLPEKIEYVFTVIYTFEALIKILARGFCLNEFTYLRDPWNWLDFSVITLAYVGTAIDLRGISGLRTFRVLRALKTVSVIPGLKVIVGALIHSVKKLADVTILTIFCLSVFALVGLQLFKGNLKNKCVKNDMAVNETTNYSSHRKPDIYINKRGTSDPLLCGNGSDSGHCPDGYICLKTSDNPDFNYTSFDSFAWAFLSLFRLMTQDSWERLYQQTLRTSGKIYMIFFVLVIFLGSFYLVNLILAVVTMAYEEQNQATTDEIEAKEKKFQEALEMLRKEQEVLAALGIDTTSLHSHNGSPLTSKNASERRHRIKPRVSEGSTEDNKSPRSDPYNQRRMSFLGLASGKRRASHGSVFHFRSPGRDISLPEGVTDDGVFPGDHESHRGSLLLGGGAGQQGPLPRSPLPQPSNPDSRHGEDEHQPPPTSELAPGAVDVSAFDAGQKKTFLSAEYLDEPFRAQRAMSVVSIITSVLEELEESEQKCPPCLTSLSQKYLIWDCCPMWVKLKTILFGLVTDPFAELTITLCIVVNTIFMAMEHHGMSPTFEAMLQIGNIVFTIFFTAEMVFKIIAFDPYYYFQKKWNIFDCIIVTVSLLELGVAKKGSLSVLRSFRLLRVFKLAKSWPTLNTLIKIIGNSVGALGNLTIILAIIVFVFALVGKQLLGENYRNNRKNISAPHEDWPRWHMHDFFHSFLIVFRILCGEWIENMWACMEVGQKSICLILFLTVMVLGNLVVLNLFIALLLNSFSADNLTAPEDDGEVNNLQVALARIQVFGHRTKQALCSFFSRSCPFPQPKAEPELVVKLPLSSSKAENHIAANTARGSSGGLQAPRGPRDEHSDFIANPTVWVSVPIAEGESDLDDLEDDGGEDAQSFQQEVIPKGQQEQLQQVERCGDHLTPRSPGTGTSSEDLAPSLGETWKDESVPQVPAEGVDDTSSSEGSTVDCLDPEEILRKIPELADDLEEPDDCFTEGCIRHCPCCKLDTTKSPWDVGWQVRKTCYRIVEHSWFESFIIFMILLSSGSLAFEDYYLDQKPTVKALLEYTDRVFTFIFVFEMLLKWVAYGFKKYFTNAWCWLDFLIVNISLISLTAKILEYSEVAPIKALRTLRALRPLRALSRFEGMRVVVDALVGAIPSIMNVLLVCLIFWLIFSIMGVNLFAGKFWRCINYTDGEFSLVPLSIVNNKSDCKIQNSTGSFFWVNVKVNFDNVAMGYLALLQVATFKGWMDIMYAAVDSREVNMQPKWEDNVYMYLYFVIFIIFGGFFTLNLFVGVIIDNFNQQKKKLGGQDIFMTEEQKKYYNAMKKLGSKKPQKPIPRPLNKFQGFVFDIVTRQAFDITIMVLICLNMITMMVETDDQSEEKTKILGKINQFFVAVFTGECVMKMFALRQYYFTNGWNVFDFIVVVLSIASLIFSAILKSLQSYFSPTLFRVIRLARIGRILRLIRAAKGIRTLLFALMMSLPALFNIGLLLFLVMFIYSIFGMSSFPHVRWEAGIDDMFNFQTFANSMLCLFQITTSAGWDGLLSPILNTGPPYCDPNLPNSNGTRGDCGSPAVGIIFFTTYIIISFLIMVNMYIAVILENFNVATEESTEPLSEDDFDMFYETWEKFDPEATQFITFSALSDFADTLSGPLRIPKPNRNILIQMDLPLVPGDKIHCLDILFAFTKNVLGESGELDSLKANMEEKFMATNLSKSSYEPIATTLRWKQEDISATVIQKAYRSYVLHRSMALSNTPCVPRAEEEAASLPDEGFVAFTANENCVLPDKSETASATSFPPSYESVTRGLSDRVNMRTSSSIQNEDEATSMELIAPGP
As usually defined, the IC50 is the concentration at which inhibition is half-maximal. Consider `O=C1NC[C@@H](C(=O)NC(c2ccc(OC(F)(F)F)c(Cl)c2)c2ccnc(C(F)(F)F)n2)N1` (single isomer, unassigned) [Example 49B, (S)-N-((R or S)-3-chloro-4-(trifluoro-methoxy)phenyl)(2-(trifluoromethyl)pyrimidin-4-yl)methyl)-2-oxoimidazolidine-4-carboxamide], for which 6.8 nM corresponded to half-maximal inhibition (IC50).
Then `CC1(C)CC(C(NC(=O)[C@@H]2CNC(=O)N2)c2ccc(Cl)cc2)CCN1CC(F)(F)F` (single isomer, unassigned) [Example 91C, (4S)—N—((R or S)(4-chlorophenyl)((R or S)2,2-dimethyl-1-(2,2,2-trifluoroethyl)piperidin-4-yl)methyl)-2-oxoimidazolidine-4-carboxamide], with 2960 nM.
In the case of `CN1CCC(C(NC(=O)[C@@H]2CNC(=O)N2)c2ccc(F)c(Cl)c2F)CC1C(F)(F)F` (single isomer, unassigned) [Example 78C, (S)-N-((R or S)-(3-chloro-2,4-difluoro-phenyl)((cis or trans)-1-methyl-2-(trifluoro-methyl)piperidin-4-yl)methyl)-2-oxoimidazolidine-4-carboxamide], the half-inhibitory concentration (IC50) is 8630 nM.
As to `O=C1NC[C@@H](C(=O)NC(c2ccc(F)c(Cl)c2F)C2COC(C(F)(F)F)C2)N1` (single isomer, unassigned) [Example 79A, (S)-N-((R or S)-(3-chloro-2,4-difluoro-phenyl)((cis or trans)-5-(trifluoro-methyl)-tetrahydrofuran-3-yl)methyl)-2-oxoimidazolidine-4-carboxamide], the IC50 came to 39 nM.
Then `O=C1NC[C@@H](C(=O)NC(c2cnc(OC(F)F)s2)c2ccc(F)c(Cl)c2F)N1` (single isomer, unassigned) [Example 36A, (S)-N-((R or S)-(3-chloro-2,4-difluorophenyl)(2-(difluoromethoxy)thiazol-5-yl)methyl)-2-oxoimidazolidine-4-carboxamide], with 12 nM; and `O=C1NC[C@@H](C(=O)NC(c2cnc(OCC(F)(F)F)s2)c2ccc(F)c(Cl)c2F)N1` (single isomer, unassigned) [Example 35B, (S)-N-((R or S)-(3-chloro-2,4-difluorophenyl)(2-(2,2,2-trifluoroethoxy)thiazol-5-yl)methyl)-2-oxoimidazolidine-4-carboxamide], with 64 nM; and `O=C1NC[C@@H](C(=O)NC(c2ccc(Cl)cc2)c2ccc3c(c2)CC3(F)F)N1` (single isomer, unassigned) [Example 90, (S)-N-((R or S)-(4-chlorophenyl)(7,7-difluorobicyclo[4.2.0]octa-1(6),2,4-trien-3-yl)methyl)-2-oxoimidazolidine-4-carboxamide], with 3.8 nM.
Then `O=C1NC[C@@H](C(=O)NC(c2cnc(C(F)(F)F)c(Cl)c2)c2ccc(F)c(Cl)c2F)N1` (single isomer, unassigned) [Example 38, (S)-N-((R or S)-(3-chloro-2,4-difluorophenyl)(5-chloro-6-(trifluoromethyl)pyridin-3-yl)methyl)-2-oxoimidazolidine-4-carboxamide], with 1.1 nM; and `O=C1NC[C@@H](C(=O)NC(c2ccc(OC(F)(F)F)c(Cl)c2)c2coc(C(F)(F)F)n2)N1` (single isomer, unassigned) [Example 47B, (S)-N-((R or S)-(3-chloro-4-(trifluoro-methoxy)phenyl)(2-(trifluoromethyl)oxazo 1-4-yl)methyl)-2-oxoimidazolidine-4-carboxamide], with 3.9 nM.
Then `N#Cc1ccc(C(NC(=O)[C@@H]2CNC(=O)N2)c2ccc(Cl)c(C(F)(F)F)c2)cc1` (single isomer, unassigned) [Example 60A, (S)-N-((R or S)-(4-chloro-3-(trifluoromethyl)-phenyl)(4-cyanophenyl)-methyl)-2-oxo-imidazolidine-4-carboxamide], with 3.1 nM; and `O=C1NC[C@@H](C(=O)NC(c2ccc(OC(F)(F)F)c(Cl)c2)c2ccc(OC(F)(F)F)cn2)N1` (single isomer, unassigned) [Example 39B, (S)—N—((R or S)-(3-chloro-4-(trifluoromethoxy)phenyl)(5-(trifluoromethoxy)pyridin-2-yl)methyl)-2-oxoimidazolidine-4-carboxamide], with 2.5 nM.
In the case of `O=C1NC[C@@H](C(=O)NC(CC2CCCCC2)c2ccc(F)c(Cl)c2F)N1` (single isomer, unassigned) [Example 54A, (S)-N-((R or S)-1-(3-chloro-2,4-difluorophenyl)-2-cyclohexylethyl)-2-oxoimidazolidine-4-carboxamide], the concentration for half-maximal inhibition (IC50) was 3.2 nM.
Then `CN1C(=O)NCC1C(=O)NC(c1ccc(Cl)cc1)c1ccc(Cl)cc1` (single isomer, unassigned) [Example 2A, (R or S)—N-(bis(4-chlorophenyl)methyl)-3-methyl-2-oxoimidazolidine-4-carboxamide], with 34 nM; and `O=C1NC[C@@H](C(=O)NC(c2ccc(F)c(Cl)c2)c2cc3cc(Cl)ccc3o2)N1` (single isomer, unassigned) [Example 73A, (S)-N-((R or S)-(3-chloro-4-fluorophenyl)(5-chlorobenzofuran-2-yl)methyl)-2-oxoimidazolidine-4-carboxamide], with 0.2 nM; and `O=C1NC[C@@H](C(=O)NC(c2ccc(F)c(Cl)c2)c2nc3ccccc3s2)N1` (single isomer, unassigned) [Example 87, (S)-N-((R or S)-benzo[d]thiazol-2-yl(3-chloro-4-fluoro-phenyl)methyl)-2-oxoimidazolidine-4-carboxamide], with 2.9 nM.
The figure for `O=C1NC[C@@H](C(=O)NC(c2ccc(F)c(Cl)c2)C2Cc3c(Cl)cccc32)N1` (single isomer, unassigned) [Example 70C, (S)-N-((R or S)-(3-chloro-4-fluoro-phenyl)((R or S)-2-chlorobicyclo[4.2.0]-octa-1(6),2,4-trien-7-yl)methyl)-2-oxoimidazolidine-4-carboxamide] is 117 nM; for `O=C1NC[C@@H](C(=O)NC(c2cnc(C(F)(F)F)nc2)c2ccc(F)c(Cl)c2F)N1` (single isomer, unassigned) [Example 48, (S)-N-((R or S)-(3-chloro-2,4-difluorophenyl)(2-(trifluoromethyl)pyrimidin-5-yl)methyl)-2-oxoimidazolidine-4-carboxamide] it is 16 nM; for `O=C1NC[C@@H](C(=O)NC(c2ccc(Cl)cc2)c2ccc(F)c(C(F)(F)F)c2)N1` (single isomer, unassigned) [Example 17A, (S)-N-((R or S)-(4-chlorophenyl)(4-fluoro-3-(trifluoro-methyl)phenyl)methyl)-2-oxoimidazolidine-4-carboxamide] it is 0.6 nM.
Then `O=C1NC[C@@H](C(=O)NC(c2ccc(F)c(Cl)c2)c2nc3ccccc3o2)N1` (single isomer, unassigned) [Example 88, (S)-N-((R or S)-benzo[d]oxazol-2-yl(3-chloro-4-fluoro-phenyl)methyl)-2-oxoimidazolidine-4-carboxamide], with 8.6 nM.
As to `O=C1NC[C@@H](C(=O)NC(c2ccc(F)c(Cl)c2F)C2COC(C(F)(F)F)C2)N1` (single isomer, unassigned) [Example 79F, (S)-N-((R or S)-(3-chloro-2,4-difluoro-phenyl)((cis or trans)-5-(trifluoromethyl)tetrahydrofuran-3-yl)methyl)-2-oxoimidazolidine-4-carboxamide], the 50% inhibitory concentration (IC50) came to 520 nM.

The values are drawn from patent US20230312528A1, “2-OXO-IMIDAZOLIDINE-4-CARBOXAMIDES AS NAV1.8 INHIBITORS” (Merck Sharp & Dohme LLC, priority 2020, published 2023).
